Reference: US5856535A, “Aminosterol ester compounds” (priority 1996, dated 1999)
≈ marks a conversion by molar mass, not a printed value. Like-named read-outs stand apart in the source and are kept apart here.

Legend:
[1] = system: S. aureus; assay: antibiotic activity, S. aureus; format: cell-based; conditions: Staphylococcus aureus
[2] = system: E. Coli; assay: antibiotic activity, E. Coli; format: cell-based; conditions: Escherichia coli
[3] = system: C. albicans; assay: antibiotic activity, C. albicans; format: cell-based; conditions: Candida albicans
[4] = system: P. aerug; assay: antibiotic activity, P. aerug; format: cell-based
[5] = system: melanoma cells; assay: MTT assay for cell number; format: cell-based; conditions: for minimal effective concentration: 48 h, Table II, read-out: Minimum Effective Concentration, MTT assay
Description: In Table V, several aminosterol esters show efficacy in killing melanoma cells in the MTT assay.
(§1) The MTT assay for cell number is performed as follows. Cells are counted on a hemocytometer and diluted to a concentration of approx. 10,000 cells/well (55,000 cells/ml×0.18 ml). Cells are then plated in a 96 well microtiter plate and allowed to attach overnight. The next day, compounds are serially diluted from 1000 to 15.6 μg/ml and run in duplicate. 20 μl of each dilution are transferred to the pre-seeded microtiter plates. The final concentrations are 100 to 1.56 μg/ml. The plates are then incubated for 48 hours at 37° C. in 5% CO2. After 48 hours, MTT solution is added. The plate is re-incubated for 4 hours. Readings are done by removing all but 30 μl of media and MTT solution and dissolving the formazan crystals with DMSO. The formazan is dissolved by mixing on a rotating plate at low speed for about 30 minutes. Absorbance of converted dye is measured at a wavelength of 560 nm with background subtraction at 630 nm. The percent survival is determined by a comparison between the mean absorbance of the duplicate test lanes and the growth control.

[6] = system: human microvascular cells; assay: endothelial cell cord formation assay (human microvascular cells, VEGF and bFGF, collagen matrix); format: cell-based; conditions: for minimal effective concentration: Homo sapiens, Endothelial cell; for inhibition of angiogenesis (in words): higher doses
Source text: Endothelial cells have the capacity in vitro to form tubular aggregates resembling capillaries in various early stages of formation. This conversion occurs under relatively specific conditions, in which essential growth factors along with an effective substratum are provided. It has been shown that both the interaction of growth factors with the endothelial cell and its attachment to a substratum activate the NHE. The activation of this exchanger is believed to be required for subsequent morphologic transformation of the endothelial cell into a multicellular tubular structure.
To assess the effect of compounds on the cord-like structures formed by human microvascular cells when plated in the presence of VEGF (Vascular Endothelial Growth Factor) and basic fibroblast growth factor on a collagen matrix, a standard cord formation assay was performed using the method described by Goto, et al., "Synergistic Effects of Vascular Endothelial Growth Factor and Basic Fibroblast Growth Factor on the Proliferation and Cord Formation of Bovine Capillary Endothelial Cells Within Collagen Gels," Laboratory Investigation, Vol. 69, No. 5, 1993, pp. 508-517. This article is entirely incorporated herein by reference.

[7] = system: chick embryo vitelline capillaries; assay: chick embryo vitelline capillary regression assay; format: in vivo; parameters: key to Chick embryo vitelline capillary regression: +: Vascular reactivity; 0: No vascular reactivity; +/-: Equivocal reactivity
Description: Using the chick embryo vitelline capillaries assay, various aminosterol compounds were tested for their ability to induce capillary regression. Each compound was applied in 0.1 ml of 15% Ficol 400 and PBS onto the embryo, and vascular regression was assessed after 60 minutes. These tests were conducted by the chorioallantoic membrane anti-angiogenesis assay by applying the material to be assayed to 3 day old fertilized chick embryos in the manner described by Wilks et al., "Inhibition of Angiogenesis With Combination Angiostatic Steroids and Suramin," Radiation Biology, Vol. 60, Nos. 1/2, 1991, pp. 73-77, which article is entirely incorporated herein by reference.
The 3-day chick embryo consists of an embryonic disc from which numerous vessels emerge and return, forming a "figure 8"-shaped structure--the embryo in the center with vascular loops extending outward over both poles. […] Following a lag period of around 15 minutes, the constriction of continuity between capillary and secondary vessels, generally on the "venous" side, was observed. Continued pulsatile blood flow progressed, resulting in a "swelling" of the blind tube, followed by a pinching off of the remaining connection and formation of an enclosed vascular sac resembling a "blood island." This process progressed until only the largest vessels remained intact.

[8] = system: Xenopus laevis Stages 59-60 tadpoles; assay: tadpole assay; format: in vivo; conditions: 10 μg/ml where stated
[9] = system: splenocytes; assay: mitogen proliferation assay (splenocytes of treated mice, Con A); format: in vivo; conditions: for potency in the mitogen proliferation assay (in words): mouse, in vivo; for Rel. potency to MSI-1436, Mitogen Proliferation Assay: 10 mg/kg iv
Description: For the attached Tables, the mitogen proliferation assay was performed by treating mice (male or female) with various amounts of the aminosterol test compounds. Some time later (typically between 2 hours and 14 days), the mice are sacrificed and their spleens removed. Splenocytes are harvested and cultured in the presence of between 1-10 μg/ml of Con A (Sigma) for 48 hours. See James Morgan, "Monoclonal Antibody Production," Modern Methods in Pharmacology, pp. 29-67, eds., Spector and Back, 1988. This excerpt is entirely incorporated herein by reference. Cell proliferation is monitored either by direct cell counting or by measurement of the incorporation of radioactive thymidine.

[10] = system: red blood cells; assay: swelling of red blood cells; format: cell-based
[11] = inhibition of MSI-1436 binding; conditions: 3H-MSI-1436 at 20 μg/mL
[12] = system: HIV; assay: inhibition of HIV replication in vitro (HIV Inhib.); format: cell-based; conditions: for inhibition at 0.14 µM: Human immunodeficiency virus 1, read-out: % Inhib of HIV
[13] = in vitro; conditions: human, pbmc
[14] = system: LLC; assay: LLC MTT; format: cell-based; conditions: Lewis lung carcinoma, 48 h; Table II; read-out: Minimum Effective Concentration, LLC MTT
Description: as §1

CC(CCC(=O)O)[C@H]1CCC2C3C(CC[C@@]21C)[C@@]1(C)CC[C@H](NCCCNCCCCNCCCN)C[C@@H]1C[C@H]3O (some centres unmarked)
MIC [1]: 16 µg/mL (≈ 27.7 µM)
MIC [2]: 32 to 64 µg/mL (≈ 55.5 to 111 µM)
MIC [3]: 32 µg/mL (≈ 55.5 µM)
MIC [4]: 16 µg/mL (≈ 27.7 µM)

COC(=O)CCC(C)[C@H]1CCC2C3C(CC[C@@]21C)[C@@]1(C)CC[C@H](NCCCNCCCCN)C[C@H]1C[C@H]3O (some centres unmarked)
MIC [1]: 64 µg/mL (≈ 120 µM)
MIC [2]: 256 µg/mL (≈ 480 µM)
MIC [3]: 256 µg/mL (≈ 480 µM)
MIC [4]: > 256 µg/mL

CC(CCC(=O)O)[C@H]1CCC2C3C(CC[C@@]21C)[C@@]1(C)CC[C@@H](NCCCNCCCCNCCCN)C[C@H]1C[C@H]3O (some centres unmarked)
MIC [1]: 64 µg/mL (≈ 111 µM)
MIC [2]: 8 µg/mL (≈ 13.9 µM)

CC(C)CCCC(C)[C@H]1CCC2C3CC[C@H]4C[C@@H](NCCCNCCCCNCCCN)CC[C@]4(C)C3CC[C@@]21C (some centres unmarked)
minimal effective concentration [5]: 3 µg/mL
minimal effective concentration ([6]; Table II, read-out: Minimum Effective Concentration, HM Cord Formation): 10 µg/mL

COC(=O)CC[C@@H](C)[C@H]1CC[C@H]2[C@@H]3[C@H](O)C[C@@H]4C[C@H](NCCN)CC[C@]4(C)[C@H]3CC[C@]12C [Compound 410]
effect on vitelline capillaries (in words) ([7]; 3- to 5-day chick embryo): substantial activity
effect on embryonic epithelium / epithelial shedding (in words) [8]: functionally similar to compound 1437
inhibition of angiogenesis (in words) [6]: inhibit angiogenesis at higher doses

COC(=O)CC[C@@H](C)[C@H]1CC[C@H]2[C@@H]3[C@H](O)C[C@@H]4C[C@@H](NCCCNCCCCNCCCN)CC[C@]4(C)[C@H]3CC[C@]12C [Compound 411]
Chick embryo vitelline capillary regression ([7]; 1 μg applied, 60 minutes): +/-
inhibition of angiogenesis (in words) [6]: inhibit angiogenesis at higher doses

COC(=O)CC[C@@H](C)[C@H]1CC[C@H]2[C@@H]3CC[C@H]4C[C@@H](NCCCNCCCCNCCCN)CC[C@]4(C)[C@H]3CC[C@]12C [Compound 459]
potency in the mitogen proliferation assay (in words) [9]: substantial potency
induction of swelling of red blood cells (in words) [10]: induce swelling of red blood cells

COC(=O)CC[C@@H](C)[C@H]1CC[C@H]2[C@@H]3C[C@@H](O)[C@H]4C[C@@H](NCCCNCCCCNCCCN)CC[C@]4(C)[C@H]3CC[C@]12C [Compound 466]
potency in the mitogen proliferation assay (in words) [9]: substantial potency
induction of swelling of red blood cells (in words) [10]: induce swelling of red blood cells

COC(=O)CC[C@@H](C)[C@H]1CC[C@H]2[C@@H]3C[C@@H](O)[C@H]4C[C@@H](NCCCNCCCCN)CC[C@]4(C)[C@H]3CC[C@]12C [Compound 566]
induction of swelling of red blood cells (in words) [10]: induce swelling of red blood cells

COC(=O)CC[C@@H](C)[C@H]1CC[C@H]2[C@@H]3CC[C@@H]4C[C@H](NCCCNCCCCNCCCN)CC[C@]4(C)[C@H]3CC[C@]12C [Compound 569]
% Inhib. of MSI-1436 Binding @ 100 μg/mL [11]: 78%
Rel. potency to MSI-1436, Mitogen Proliferation Assay [9]: 0.50
potency in the mitogen proliferation assay (in words) [9]: substantial potency
inhibition of HIV relative to compound 1436 (in words) [12]: higher inhibition of HIV than compound 1436
inhibition at 0.14 µM [12]: 91%
MTT assay IC50 ([5]; Tables III-V): 15 µg/mL
IC50 ([5]; Tables III-V, read-out: MTT assay IC50): 14.5 µg/mL (≈ 25.2 µM)
cytotoxicity at 14 µM [13]: 9%

C=C(C)C(=O)CC[C@@H](C)[C@H]1CC[C@H]2[C@@H]3[C@H](O)C[C@H]4C[C@@H](NCCCNCCCCN)CC[C@]4(C)[C@H]3CC[C@]12C [Compound 1361, reference compound]
induction of swelling of red blood cells (in words) [10]: induce swelling of red blood cells

CO[C@@H]1[C@H](OC(=O)/C=C/C=C/C=C/C=C/C(=O)O)CC[C@]2(CO2)[C@H]1[C@@]1(C)O[C@@H]1CC=C(C)C [Fumagillin, reference compound]
minimal effective concentration ([6]; text to the table, read-out: concentration at which cord formation is inhibited): 10 µg/mL

COC(=O)CCC(C)[C@H]1CCC2C3C(CC[C@@]21C)[C@@]1(C)CC[C@H](NCCCNCCCCNCCCN)C[C@@H]1C[C@H]3O (some centres unmarked) [drawing 35]
MIC [1]: 2 to 4 µg/mL (≈ 3.38 to 6.77 µM)

COC(=O)CCC(C)[C@H]1CCC2C3C(CC[C@@]21C)[C@@]1(C)CC[C@@H](NCCCNCCCCN)C[C@H]1C[C@H]3O (some centres unmarked) [drawing 38]
MIC [1]: 4 µg/mL (≈ 7.49 µM)
MIC [2]: 32 to 64 µg/mL (≈ 59.9 to 120 µM)
MIC [3]: 64 µg/mL (≈ 120 µM)
MIC [4]: 64 µg/mL (≈ 120 µM)

COC(=O)CCC(C)[C@H]1CCC2C3C(CC[C@@]21C)[C@@]1(C)CC[C@@H](NCCN)C[C@H]1C[C@H]3O (some centres unmarked) [drawing 40]
MIC [4]: 32 µg/mL (≈ 71.3 µM)

CC(CCC(=O)O)[C@H]1CCC2C3C(CC[C@@]21C)[C@@]1(C)CC[C@H](NCCCNCCCCNCCCN)C[C@H]1C[C@H]3O (some centres unmarked) [drawing 43]
MIC [4]: 64 µg/mL (≈ 111 µM)

CC(CC[C@@H](OS(=O)(=O)O)C(C)C)[C@H]1CCC2C3C(CC[C@@]21C)[C@@]1(C)CC[C@H](NCCCNCCCCNCCCN)C[C@@H]1C[C@H]3O (some centres unmarked) [drawing 51]
MIC [1]: 1 µg/mL (≈ 1.46 µM)
MIC [2]: 1 to 2 µg/mL (≈ 1.46 to 2.92 µM)
MIC [3]: 8 µg/mL (≈ 11.7 µM)
MIC [4]: 4 µg/mL (≈ 5.84 µM)

CC(CCC(CO)(OS(=O)(=O)O)C(C)C)[C@H]1CCC2C3C(CC[C@@]21C)[C@@]1(C)CC[C@H](NCCCNCCCCN)C[C@@H]1C[C@H]3O (some centres unmarked) [drawing 52]
MIC [1]: 2 µg/mL (≈ 3.04 µM)
MIC [2]: 4 µg/mL (≈ 6.08 µM)
MIC [3]: 16 µg/mL (≈ 24.3 µM)
MIC [4]: 16 µg/mL (≈ 24.3 µM)

COC(=O)CCC(C)[C@H]1CCC2C3CC[C@H]4C[C@H](NCCCNCCCCNCCCN)CC[C@]4(C)C3CC[C@@]21C (some centres unmarked) [drawing 55]
MIC [1]: 4 µg/mL (≈ 6.96 µM)

CC(C)[C@@H](CC[C@@H](C)[C@H]1CC[C@H]2[C@@H]3[C@H](O)C[C@H]4C[C@@H](NCCCNCCCCN)CC[C@]4(C)[C@H]3CC[C@]12C)OS(=O)(=O)O [drawing 92]
minimal effective concentration [14]: 13.2 µg/mL
minimal effective concentration [5]: 7.8 µg/mL

CC(CC[C@@H](OS(=O)(=O)O)C(C)C)[C@H]1CCC2C3C(CC[C@@]21C)[C@@]1(C)CC[C@H](NCCCNCCCCNCCCN)C[C@@H]1C[C@H]3O (some centres unmarked) [drawing 93]
minimal effective concentration [14]: 16.7 µg/mL
minimal effective concentration [5]: 6.9 µg/mL

CC(CCC(CO)(OS(=O)(=O)O)C(C)C)[C@H]1CCC2C3C(CC[C@@]21C)[C@@]1(C)CC[C@H](NCCCNCCCCN)C[C@@H]1C[C@H]3O (some centres unmarked) [drawing 99]
% Inhib. of MSI-1436 Binding @ 100 μg/mL [11]: 14%
Rel. potency to MSI-1436, Mitogen Proliferation Assay [9]: 1.08
inhibition at 0.14 µM [12]: -44%
cytotoxicity at 14 µM [13]: 0%
